Results from PMC4703368, “A Conserved Interaction between a C-Terminal Motif in Norovirus VPg and the HEAT-1 Domain of eIF4G Is Essential for Translation Initiation” (PLoS Pathogens, 2016).

How the values were obtained:
His-eIF4GI HEAT-1 [1] = assay: cobalt affinity pull-down, GST-VPg C-terminal fusions as prey (Fig 4B-E); assay type: binding, human; conditions: for % binding (relative to WT) / Bait/Prey / Prey/Bait: Figure 4E; for % binding (relative to WT): ImageJ quantification; for Bait/Prey / Prey/Bait: band density ratio, ImageJ; for binding to His-eIF4GI HEAT-1 in cobalt pull-down: bait 2.6 µM, GST-VPg fusions 1.5 µM; for binding to His-eIF4GI HEAT-1 in cobalt pull-down / binding to His-eIF4GI HEAT-1, % of wild-type: 25 mM MES, 150 mM NaCl, pH 6.5; for binding to His-eIF4GI HEAT-1, % of wild-type: quantification of pull-down, Fig 4E
His-eIF4GI HEAT-1 [2] = assay: cobalt affinity pull-down, SDS PAGE band quantification; conditions: parent: est. 100; read off a plot
[3] = test system: His-tagged MNV VPg(1–124); assay: cobalt affinity pull-down, eIF4GI HEAT-1 mutants as prey (Fig 5D-E)

Row | Substance | % binding (relative to WT) (His-eIF4GI HEAT-1 [1]; repeat 1, 2014-07-24) [%] | Bait/Prey (His-eIF4GI HEAT-1 [1]; repeat 1, 2014-07-24) | Prey/Bait (His-eIF4GI HEAT-1 [1]; repeat 1, 2014-07-24) | % binding (relative to WT) (His-eIF4GI HEAT-1 [1]; repeat 2, 2014-07-25) [%] | Bait/Prey (His-eIF4GI HEAT-1 [1]; repeat 2, 2014-07-25) | Prey/Bait (His-eIF4GI HEAT-1 [1]; repeat 2, 2014-07-25) | % binding (relative to WT) (His-eIF4GI HEAT-1 [1]; repeat 3, 2014-07-25) [%] | Bait/Prey (His-eIF4GI HEAT-1 [1]; repeat 3, 2014-07-25) | Prey/Bait (His-eIF4GI HEAT-1 [1]; repeat 3, 2014-07-25) | % binding (relative to WT) (His-eIF4GI HEAT-1 [1]; repeat 4, 2014-07-31) [%] | Bait/Prey (His-eIF4GI HEAT-1 [1]; repeat 4, 2014-07-31) | Prey/Bait (His-eIF4GI HEAT-1 [1]; repeat 4, 2014-07-31) | binding to His-eIF4GI HEAT-1 in cobalt pull-down (His-eIF4GI HEAT-1 [1]) | percent of parent (% of WT (normalised OD ratio)) (His-eIF4GI HEAT-1 [2]) | further results
1 | R113A | 63.4705 | 4.285 | 0.2334 | 60.4116 | 3.025 | 0.3306 | 58.2069 | 3.0762 | 0.3251 | 76.2941 | 2.643 | 0.3784 | capable of binding eIF4GI HEAT-1 | – | binding to His-eIF4GI HEAT-1, % of wild-type (His-eIF4GI HEAT-1 [1]): 60–80%
2 | GST-MNV VPg(102–124) F123A | – | – | – | – | – | – | – | – | – | – | – | – | – | 6 | –
3 | GST-MNV VPg(102–124) D110A | – | – | – | – | – | – | – | – | – | – | – | – | – | 75 | –
4 | E913R | – | – | – | – | – | – | – | – | – | – | – | – | – | – | Relative density normalised to WT (%) ([3]; 150 mM NaCl, experiment 1): 72.7%; Relative density normalised to WT (%) ([3]; 150 mM NaCl, experiment 2): 89.6%; Relative density normalised to WT (%) ([3]; 150 mM NaCl, experiment 3): 82.8%; Relative density normalised to WT (%) ([3]; 300 mM NaCl, experiment 1): 49.0%; Relative density normalised to WT (%) ([3]; 300 mM NaCl, experiment 2): 56.0%
5 | GST-MNV VPg(102–124) K120A | – | – | – | – | – | – | – | – | – | – | – | – | – | 90 | –
6 | K120A | 102.078 | 2.664 | 0.3754 | 80.9274 | 2.258 | 0.4429 | 85.5916 | 2.092 | 0.478 | 78.1139 | 2.581 | 0.3874 | appears to bind as effectively as the wild-type sequence | – | % binding (relative to WT) (His-eIF4GI HEAT-1 [1]; repeat 7, 2015-08-05): 78.74%; Bait/Prey (His-eIF4GI HEAT-1 [1]; repeat 7, 2015-08-05): 4.118; Prey/Bait (His-eIF4GI HEAT-1 [1]; repeat 7, 2015-08-05): 0.2428
7 | D110A | 71.5502 | 3.801 | 0.2631 | 69.0469 | 2.646 | 0.3779 | 77.4561 | 2.312 | 0.4326 | 83.3957 | 2.418 | 0.4136 | capable of binding eIF4GI HEAT-1 | – | binding to His-eIF4GI HEAT-1, % of wild-type (His-eIF4GI HEAT-1 [1]): 60–80%
8 | GST-MNV VPg(102–124) R113A | – | – | – | – | – | – | – | – | – | – | – | – | – | 64 | –
9 | GST-MNV VPg(102–124) V115A | – | – | – | – | – | – | – | – | – | – | – | – | – | 3 | –
